Earlier results in patent publication US20110268770A1, “CHEWABLE GELLED EMULSIONS” (PROBIO ASA, priority 2008, published 2011).

Settings: commercially available statins

| SMILES | solubility class (water-soluble or lipid-soluble) |
| --- | --- |
| CC[C@H](C)C(=O)O[C@H]1C[C@H](O)C=C2C=C[C@H](C)[C@H](CC[C@@H](O)C[C@@H](O)CC(=O)O)[C@H]21 [pravastatin] | water-soluble |
| CC[C@H](C)C(=O)O[C@H]1C[C@@H](C)C=C2C=C[C@H](C)[C@H](CC[C@@H]3C[C@@H](O)CC(=O)O3)[C@H]21 [lovastatin] | lipid-soluble |
| CC(C)c1nc(N(C)S(C)(=O)=O)nc(-c2ccc(F)cc2)c1/C=C/[C@@H](O)C[C@@H](O)CC(=O)O [rosuvastatin] | water-soluble |
